Test results published in ChEMBL document CHEMBL1909046, “DrugMatrix in vitro pharmacology data”.

Columns and labels:
[1] = biological target: Mitogen-activated protein kinase 1 (Homo sapiens, UniProt P28482); assay: DRUGMATRIX: Protein Serine/Threonine Kinase, ERK2 enzyme inhibition (substrate: Myelin Basic Protein); parameters: species or system Escherichia coli; details: Not Active = under 50% inhibition at 10 µM
[2] = DRUGMATRIX: Sodium/nucleoside co-transporter radioligand binding (ligand: nitrobenzylthioinosine); assay type: cell membranes, Cavia porcellus, Dunkin-Hartley, Cerebral cortex, Membrane; details: Not Active = under 50% inhibition at 10 µM
Caspase-1 = biological target: T1, Caspase-1 (Homo sapiens, UniProt P29466); parameters: species or system Escherichia coli;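 note: Caspase-1 enzyme inhibition assay with a peptide substrate; in other assays of this panel Not Active means under 50% inhibition at 10 µM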
T1 sequence (P29466 whole entry): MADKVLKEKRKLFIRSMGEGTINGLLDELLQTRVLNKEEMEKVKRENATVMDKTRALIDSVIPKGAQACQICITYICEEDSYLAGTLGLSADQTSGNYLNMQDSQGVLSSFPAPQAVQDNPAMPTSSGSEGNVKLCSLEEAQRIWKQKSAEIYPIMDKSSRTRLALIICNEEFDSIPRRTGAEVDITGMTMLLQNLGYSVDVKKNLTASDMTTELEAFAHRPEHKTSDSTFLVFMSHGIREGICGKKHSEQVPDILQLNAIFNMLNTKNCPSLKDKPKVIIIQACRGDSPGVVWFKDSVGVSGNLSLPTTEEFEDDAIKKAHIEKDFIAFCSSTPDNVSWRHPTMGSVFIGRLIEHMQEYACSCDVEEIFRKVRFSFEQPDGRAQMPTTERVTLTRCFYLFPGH

Cytochrome P450 3A4 = Cytochrome P450 3A4 (Homo sapiens, UniProt P08684); details: bti-tn-5b1-4; note: in other assays of this panel Not Active means under 50% inhibition at 10 µM
[3] = biological target: Aldo-keto reductase family 1 member B1 (Rattus norvegicus, UniProt P07943); assay type: tissue-based, Lens of camera-type eye;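 note: inhibition of aldose reductase enzyme activity, measured with DL-glyceraldehyde as the substrate; in other assays of this panel Not Active means under 50% inhibition at 10 µM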
[4] = DRUGMATRIX: Sigma2 radioligand binding (ligand: [3H] Ifenprodil); assay type: cell membranes, Rattus norvegicus, Wistar, Brain, Membrane; details: Not Active = under 50% inhibition at 10 µM
[5] = biological target: T2, Alpha-1A adrenergic receptor (Rattus norvegicus, UniProt P43140); assay: DRUGMATRIX: Alpha-1A adrenergic receptor radioligand binding (ligand: prazosin); assay type: cell membranes, Wistar, Submaxillary gland, Membrane; details: Not Active = under 50% inhibition at 10 µM
T2 sequence (P43140 whole entry): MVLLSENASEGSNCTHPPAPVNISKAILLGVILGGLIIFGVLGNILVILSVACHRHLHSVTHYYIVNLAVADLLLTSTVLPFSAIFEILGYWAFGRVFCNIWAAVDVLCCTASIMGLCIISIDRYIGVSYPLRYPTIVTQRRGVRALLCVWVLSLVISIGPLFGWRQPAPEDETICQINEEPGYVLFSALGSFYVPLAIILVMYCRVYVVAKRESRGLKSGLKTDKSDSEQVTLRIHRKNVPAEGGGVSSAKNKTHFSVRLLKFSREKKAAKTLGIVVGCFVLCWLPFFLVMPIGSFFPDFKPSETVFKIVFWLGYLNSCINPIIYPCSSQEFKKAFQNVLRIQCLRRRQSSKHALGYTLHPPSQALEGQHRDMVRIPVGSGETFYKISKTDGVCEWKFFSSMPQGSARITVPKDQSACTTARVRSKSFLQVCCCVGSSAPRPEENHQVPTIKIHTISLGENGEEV

Chain of Cytochrome P450 3A4 (P08684 whole entry): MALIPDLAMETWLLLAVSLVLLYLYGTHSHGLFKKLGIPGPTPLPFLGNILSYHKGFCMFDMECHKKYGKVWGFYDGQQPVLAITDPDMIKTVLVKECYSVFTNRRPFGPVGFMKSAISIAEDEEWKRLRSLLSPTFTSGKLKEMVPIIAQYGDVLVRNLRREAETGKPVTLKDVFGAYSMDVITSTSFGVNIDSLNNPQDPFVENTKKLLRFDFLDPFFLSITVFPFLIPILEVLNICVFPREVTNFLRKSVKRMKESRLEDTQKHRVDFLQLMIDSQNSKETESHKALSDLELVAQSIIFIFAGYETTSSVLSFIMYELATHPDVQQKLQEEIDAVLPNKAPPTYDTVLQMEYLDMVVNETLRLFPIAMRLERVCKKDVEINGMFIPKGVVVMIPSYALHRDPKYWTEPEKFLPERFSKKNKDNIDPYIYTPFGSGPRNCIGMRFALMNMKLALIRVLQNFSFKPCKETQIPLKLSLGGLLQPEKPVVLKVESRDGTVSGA
Chain of Mitogen-activated protein kinase 1 (P28482 whole entry): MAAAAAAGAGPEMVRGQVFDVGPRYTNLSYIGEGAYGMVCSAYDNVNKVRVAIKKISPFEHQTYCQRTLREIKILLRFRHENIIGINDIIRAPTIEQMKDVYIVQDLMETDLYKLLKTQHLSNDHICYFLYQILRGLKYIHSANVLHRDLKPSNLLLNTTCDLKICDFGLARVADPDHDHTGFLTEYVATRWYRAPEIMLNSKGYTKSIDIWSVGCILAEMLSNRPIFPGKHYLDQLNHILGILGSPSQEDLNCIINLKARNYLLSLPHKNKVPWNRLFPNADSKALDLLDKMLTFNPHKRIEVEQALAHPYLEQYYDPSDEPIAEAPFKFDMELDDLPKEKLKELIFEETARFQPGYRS

CC[C@H](C)[C@H]1O[C@]2(C=C[C@@H]1C)C[C@@H]1C[C@@H](C/C=C(\C)[C@@H](O[C@H]3C[C@H](OC)[C@@H](O[C@H]4C[C@H](OC)[C@@H](O)[C@H](C)O4)[C@H](C)O3)[C@@H](C)/C=C/C=C3\CO[C@@H]4[C@H](O)C(C)=C[C@@H](C(=O)O1)[C@]34O)O2.CO[C@H]1C[C@H](O[C@H]2[C@H](C)O[C@@H](O[C@@H]3/C(C)=C/C[C@@H]4C[C@@H](C[C@]5(C=C[C@H](C)[C@@H](C(C)C)O5)O4)OC(=O)[C@@H]4C=C(C)[C@@H](O)[C@H]5OC/C(=C\C=C\[C@@H]3C)[C@]54O)C[C@@H]2OC)O[C@@H](C)[C@@H]1O [ABAMECTIN]
Not Active: IC50 [1] | IC50 [2] | Ki [2] | IC50 (Caspase-1) | IC50 (Cytochrome P450 3A4) | Ki (Cytochrome P450 3A4) | IC50 [3] | IC50 [4] | Ki [4] | IC50 [5]

Cc1nnc2n1-c1ccc(Cl)cc1C(c1ccccc1)=NC2 [ALPRAZOLAM]
Not Active: IC50 [1] | IC50 [2] | Ki [2] | IC50 (Caspase-1) | IC50 (Cytochrome P450 3A4) | Ki (Cytochrome P450 3A4) | IC50 [3] | IC50 [4] | Ki [4] | IC50 [5]

Cn1c(=O)c2[nH]cnc2n(C)c1=O.Cn1c(=O)c2[nH]cnc2n(C)c1=O.NCCN [AMINOPHYLLINE]
Not Active: IC50 [1] | IC50 [2] | Ki [2] | IC50 (Caspase-1) | IC50 (Cytochrome P450 3A4) | Ki (Cytochrome P450 3A4) | IC50 [3] | IC50 [4] | Ki [4] | IC50 [5]

CCC1(CCC(C)C)C(=O)NC(=O)NC1=O [AMOBARBITAL]
Not Active: IC50 [1] | IC50 [2] | Ki [2] | IC50 (Caspase-1) | IC50 (Cytochrome P450 3A4) | Ki (Cytochrome P450 3A4) | IC50 [3] | IC50 [4] | Ki [4] | IC50 [5]

CC1(C)S[C@@H]2[C@H](NC(=O)[C@H](N)c3ccccc3)C(=O)N2[C@H]1C(=O)O [AMPICILLIN]
Not Active: IC50 [1] | IC50 [2] | Ki [2] | IC50 (Caspase-1) | IC50 (Cytochrome P450 3A4) | Ki (Cytochrome P450 3A4) | IC50 [3] | IC50 [4] | Ki [4] | IC50 [5]

COc1ccc(C2C(=O)c3ccccc3C2=O)cc1 [ANISINDIONE]
Not Active: IC50 [1] | IC50 [2] | Ki [2] | IC50 (Caspase-1) | IC50 (Cytochrome P450 3A4) | Ki (Cytochrome P450 3A4) | IC50 [3] | IC50 [4] | Ki [4] | IC50 [5]

O=C1O[C@H]([C@@H](O)CO)C(O)=C1O [ASCORBIC ACID]
Not Active: IC50 [1] | IC50 [2] | Ki [2] | IC50 (Caspase-1) | IC50 (Cytochrome P450 3A4) | Ki (Cytochrome P450 3A4) | IC50 [3] | IC50 [4] | Ki [4] | IC50 [5]
